Assays:
[1] = biological target: T1, recombinant soluble human CD73 (Homo sapiens, UniProt P21589, T376A); test: CD73 enzyme inhibition assay with [2,8-3H]AMP, soluble human CD73; format: biochemical; conditions: [2,8-3H]AMP (5 μM) as substrate; Ki from IC50 by Cheng-Prusoff; read-out: Human soluble CD73 Ki ± SEM
T1 construct: mature human CD73 (residues 27-549) fused to 6×His-tag at the C-terminus; 6xHis (C); made in house; host or cells: Spodoptera frugiperda Sf9 insect cells (baculovirus, pAcGP67B vector)
T1 sequence (P21589 27-549 T376A): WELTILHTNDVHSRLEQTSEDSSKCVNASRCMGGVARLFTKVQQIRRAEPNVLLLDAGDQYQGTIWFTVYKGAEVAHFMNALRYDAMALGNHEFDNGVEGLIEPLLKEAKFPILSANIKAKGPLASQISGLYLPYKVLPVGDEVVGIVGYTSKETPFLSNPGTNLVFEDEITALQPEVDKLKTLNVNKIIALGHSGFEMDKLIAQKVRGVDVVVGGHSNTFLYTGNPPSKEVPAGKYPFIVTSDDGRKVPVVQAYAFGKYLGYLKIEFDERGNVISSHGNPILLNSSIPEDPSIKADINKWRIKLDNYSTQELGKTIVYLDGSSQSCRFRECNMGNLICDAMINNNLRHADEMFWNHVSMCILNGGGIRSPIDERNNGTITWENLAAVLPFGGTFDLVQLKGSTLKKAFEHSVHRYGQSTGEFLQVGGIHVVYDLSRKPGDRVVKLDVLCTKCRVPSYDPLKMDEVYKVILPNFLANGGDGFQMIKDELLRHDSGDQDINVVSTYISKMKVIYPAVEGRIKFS
Experimental: (§1) Compound 2b, its precursor 1, and 20 were investigated for their CD73-inhibitory potency using tritium-labeled AMP as a substrate.^20 After incubation with CD73, non-hydrolyzed substrate and inorganic phosphate were precipitated using a solution of lanthanum chloride, and the precipitate was separated from the solution containing the reaction product [2,8-^3H]adenosine by filtration through GF/B glass fiber filters (WhatmanTM GE Healthcare, Chicago, IL, USA) using a cell harvester (M-48, Brandel, Gaitherburg, MD, USA). The filtrates (ca. 1.8 mL each) were transferred to scintillation vials, scintillation cocktail ULTIMA Gold XR (PerkinElmer, Waltham, MA, USA) was added (5 mL), and the radioactivity esd quantified by scintillation counting. CD73 preparations were (1) recombinant soluble human CD73,^13 (2) recombinant soluble rat CD73,^21 both expressed in Spodoptera frugiperda 9 (Sf) cells, (3) membrane preparations of MDA-MB-231 cells,^16 a human triple-negative breast cancer cell line with high expression of CD73,^18 and (4) membrane preparations of the 4T1.2 cell line, a mouse CD73-expressing breast cancer cell line.^22 The potency of the compounds was determined by measurements of full concentration-inhibition curves. K values were calcuated from the obtained IC50 values employing the Cheng-Prusoff equation.^23
Human soluble CD73 was expressed in Spodoptera frugiperda (Sf9) insect cells and purified as previously described.^16 The cDNA encoding for the mature human CD73 (residues 27-549) fused to 6×His-tag at the C-terminus (Genbank accession no. NM_002526) corresponding to the natural variant T376A (P21589/VAR_022091, UniProtKB/Swiss-Prot) was ligated into the pAcGP67B vector. For transfection, 1 μl of the recombinant vector (1000 ng/μl) mixed with 2.5 μl of baculovirus genomic DNA ProEasy™ (AB vector, CA, USA) was used to transfect Sf9 cells grown in Insect-XPRESS™ medium (#BE12-7300, Lonza, Switzerland) supplemented with 10 mg/l gentamicin. […]

[2] = biological target: T2, recombinant soluble rat CD73 (Rattus norvegicus, UniProt P21588); test: CD73 enzyme inhibition assay with [2,8-3H]AMP, soluble rat CD73; format: biochemical; conditions: [2,8-3H]AMP (5 μM) as substrate; read-out: Rat soluble CD73 Ki ± SEM
T2 construct: glutathione-S-transferase fusion protein of soluble rat CD73; glutathione-S-transferase (GST); made in house; host or cells: Sf9 insect cells
T2 sequence (P21588 29-551 limits assumed): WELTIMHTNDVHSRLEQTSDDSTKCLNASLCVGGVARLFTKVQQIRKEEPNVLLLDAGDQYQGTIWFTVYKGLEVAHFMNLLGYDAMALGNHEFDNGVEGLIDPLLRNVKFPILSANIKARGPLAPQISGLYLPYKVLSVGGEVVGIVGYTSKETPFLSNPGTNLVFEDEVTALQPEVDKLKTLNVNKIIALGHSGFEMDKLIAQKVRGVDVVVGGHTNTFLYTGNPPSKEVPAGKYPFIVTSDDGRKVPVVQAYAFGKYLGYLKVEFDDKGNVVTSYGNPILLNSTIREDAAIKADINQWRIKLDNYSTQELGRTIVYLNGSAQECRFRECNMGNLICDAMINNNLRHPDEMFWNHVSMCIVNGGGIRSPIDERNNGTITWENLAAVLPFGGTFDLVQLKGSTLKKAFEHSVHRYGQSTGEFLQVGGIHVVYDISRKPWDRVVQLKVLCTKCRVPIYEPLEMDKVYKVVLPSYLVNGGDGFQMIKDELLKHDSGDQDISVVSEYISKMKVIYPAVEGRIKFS
Experimental: as §1, with “equation.^23 […]” for “equation.^23”

Q: For `CCCN(Cc1ccc(-c2cn(CCF)nn2)cc1)c1nc(Cl)nc2c1ncn2[C@@H]1O[C@H](COP(=O)(O)CP(=O)(O)O)C(O)C1O` (stereo partly shown) [Compound 2], which Ki [1] is on record?
A: Its Ki is 1.02 ± 0.11 nM.

Q: What about the Ki [2] of the same molecule?
A: Its Ki is 6.09 ± 0.74 nM.

Q: For `O=C(NCCCCCCNC(=O)c1ccc2c(c1)C1(OC2=O)c2ccc(O)cc2Oc2cc(O)ccc21)c1ccc(CNc2nc(Cl)nc3c2ncn3[C@@H]2O[C@H](COP(=O)(O)CP(=O)(O)O)[C@@H](O)[C@H]2O)cc1` [Compound 20, (((((2R,3S,4R,5R)-5-(2-chloro-6-((4-((6-(3′,6′-dihydroxy-3-oxo-3H-spiro[isobenzofuran-1,9′-xanthene]-6-carboxamido)-hexyl)carbamoyl)benzyl)amino)-9H-purin-9-yl)-3,4-dihydroxytetrahydrofuran-2-yl)methoxy)(hydroxy)phosphoryl)methyl)phosphonic acid], which Ki [1] is on record?
A: Its Ki is 5.96 ± 0.85 nM.

Q: What about the Ki [2] of the same molecule?
A: Its Ki is 18 ± 1.43 nM.
